These results are taken from US20210391038A1, “SPECIFICALLY-SHAPED CRYSTAL OF COMPOUND AND METHOD FOR PRODUCING SAME” (TOWA PHARMACEUTICAL CO., LTD., priority 2018, published 2021).

Structures can show the parent of a compound that is named as a salt. Where two headings read alike, the source gives them in different places.

What all share (type): physicochemical
The nature of data set [1]: Particle density, true density and particle packing rate. To be noted: trihydrate; for Particle packing rate: particle density / true density x 100. The procedure:
“Particle density” in the present description is mass per unit volume when the volume of the substance itself as well as the volume of the open void and the closed void are included as the volume of polycrystalline particles. For example, when the polycrystalline particles are spherical particles, the particle density is calculated by the following formula using the mean mass of the polycrystalline particles and the mean volume of the polycrystalline particles:
Here, the mean mass of polycrystalline particles is calculated by measuring the number of polycrystalline particles contained in 1.0 mg or more, preferably 5.0 mg or more, and more preferably 10.0 mg or more of a sample by a scanner, etc. The mean volume of crystal particles is obtained by averaging the volume calculated by photographing 500 or more, preferably 1,000 or more, and more preferably 5,000 or more crystal particles by a light microscope, etc., using an equivalent circle diameter obtained from the projected area of polycrystalline particles, and assuming that the polycrystalline particles are true spheres. At this time, it is desirable that the distribution of the equivalent circle diameter is unimodal and the sharpness value is less than 1.5.
“Particle packing rate” of a polycrystal in the present description is a value calculated by the following formula:
Particle packing rate (%)=(particle density)/(true density of compound)×100 [Equation 8]
Here, “true density of compound” is a density of a substance itself not including a void. If no void exists at all inside or on the surface of a particle, the particle packing rate is 100%. The true density of a compound can be obtained by dry density measurement by the constant volume expansion method. Examples of the measuring device include a dry automatic densimeter AccuPyc II 1340-10CC manufactured by Shimadzu Corporation.
The particle size distribution was measured in a dry manner using a spray particle size distribution analyzer AEROTRAC LDSA-SPR3500A manufactured by Microtrac Inc. The particle size distribution in Examples 2 and 7 was measured in a dry manner using a laser diffraction particle size distribution measurement MASTERSIZER 3000 manufactured by Malvern Panalytical Ltd. SEM images were measured using a scanning electron microscope JSM-IT100 manufactured by JEOL Ltd. Light microscope images were measured using an upright microscope BX53M manufactured by Olympus Corporation and a microscope digital camera DP74 manufactured by Olympus Corporation. Images for measuring the number of particles were obtained by a scanner GT-X830 manufactured by SEIKO EPSON CORPORATION. The powder X-ray diffraction (XRD) was measured using a desktop X-ray diffraction device MiniFlex300 manufactured by Rigaku Corporation. The specific surface area was measured by the BET fluid process (gas used: pure nitrogen) using a fully automatic specific surface area measuring device Macsorb HM-1208 manufactured by Mountech Co., Ltd. The moisture content was measured using a trace moisture measuring device AQ-2200 manufactured by […] SANGYO Co., Ltd. The dissolution profile was measured using μDISS Profiler manufactured by Pion Inc. Centrifugal classification was performed using a high-efficiency precision forced air classifier Lab Calssiel N-01 manufactured by SEISHIN […] Co., Ltd. Image analysis was performed using image processing software ImageJ developed by the National Institute of Health (NIH). The particle strength was measured using a particle hardness measuring device NEW GRANO manufactured by OKADA SEIKO CO., LTD. The true density was measured using a dry automatic densimeter AccuPyc II 1340-10CC manufactured by Shimadzu Corporation. The purity of a compound was measured by a high performance liquid chromatograph (LC-20A) manufactured by Shimadzu Corporation. […]

A short description of data set [2]: Sphericity from SEM images (ImageJ). Also noted: key: 1 = true sphere; closer to 1 = more spherical; mean of ≥5 particles. From the text:
In the present description, “spherulite” means a crystal aggregate (polycrystal) which has a radial or concentric thin layered structure and has a spherical outer shape. Whether the crystal obtained by the method of the present invention is a spherulite or not can be determined, for example, by observing the outer shape of the crystal using SEM. For example, it can be discriminated by cutting the crystal aggregate and observing the internal structure thereof using SEM. The sphericity of the spherulite obtained by the method of the present invention is usually 0.60 or more, preferably 0.70 or more, more preferably 0.80 or more, particularly preferably 0.90 or more, and most preferably 0.95 or more. The sphericity can be calculated by the following method.
When an image of particles taken by SEM is analyzed using image processing software ImageJ, a coordinate group representing the position of pixels forming the outline of a particle is obtained. The length of the coordinate group is defined as N, and one pixel coordinate of each outline is defined as p[i] (1≤i≤N). The angle between a straight line l(k) connecting two points p[k] and p[k+N/D] and a straight line m(k) connecting two points p[k+N/D] and p[k+2N/D] is defined as θ(k) (−180°<θ<180°) (1≤k≤N, 1≤D≤N). D corresponds to the number of partitions of the outline. When N/D is not a natural number, the value is defined as the quotient obtained by dividing N by D. By calculating this angle with k=1 to N, N pieces of θ value can be obtained.
When the particle is a true sphere, θ(k) is 360/D, and the closer the particle is to a true sphere, the closer θ(k) is to this value. The error between θ(k) and the true value 360/D is evaluated by the root-mean-square error (RMSE) of the following formula:
Using the RMSE value of when D is 10 (θ(k)=36°), the sphericity is defined by the following formula: […]
The sphericity is 1 in a true sphere, and the closer the particle is to a true sphere, the closer the sphericity is to 1. Meanwhile, the sphericity of an ellipse whose long axis is infinitely long is zero. The sphericity is measured for five or more particles to calculate the mean. This mean is defined as the sphericity of each sample (see FIGS. 42 and 43).

A short description of data set [3]: Particle size distribution (d50, sharpness index). Also noted: key to sharpness index of the crystal thus obtained / sharpness index of the fine powders: calculated by formula from d10, d50, d90; 1.0 = most uniform particle size. The source says: d10 in the present description is a value obtained from a particle size distribution analyzer, and represents a particle size of a particle corresponding to 10% of accumulation from the smaller particle side in the particle size distribution based on the volume.
d50 in the present description is a value obtained from a particle size distribution analyzer, and represents a particle size of a particle corresponding to 50% of accumulation from the smaller particle side in the particle size distribution based on the volume.
“Sharpness index” in the present description is an index representing the uniformity of a particle size of a particle in a powder, and a sharpness index of 1.0 represents a powder having the most uniform particle size. The closer the sharpness index is to 1.0, the more the particle size of the powder is uniform. Specifically, the sharpness index represents a value calculated using the following formula from the values of d10, d50, and d90 measured by a particle size distribution analyzer:
Images for measuring the number of particles were obtained by a scanner GT-X830 manufactured by SEIKO EPSON CORPORATION. The powder X-ray diffraction (XRD) was measured using a desktop X-ray diffraction device MiniFlex300 manufactured by Rigaku Corporation. […] The particle strength was measured using a particle hardness measuring device NEW GRANO manufactured by OKADA SEIKO CO., LTD. […] The purity of a compound was measured by a high performance liquid chromatograph (LC-20A) manufactured by Shimadzu Corporation.

Where [4] appears, read: SEM image analysis, mean of particles, trihydrate.
The mark [5] stands for this setting: calculated from d10, d50, d90, trihydrate.
The mark [6] stands for this setting: dry particle size distribution, volume based, trihydrate.
Where [7] appears, read: SEM image analysis, mean of particles.
Setting [8] is: dry particle size distribution, volume based.

As for `COc1ccc2[n-]c([S@@+]([O-])Cc3ncc(C)c(OC)c3C)nc2c1.COc1ccc2[n-]c([S@@+]([O-])Cc3ncc(C)c(OC)c3C)nc2c1.O.O.O.[Mg+2]` [Sample 1, esomeprazole magnesium trihydrate], in data set [1], the Particle packing rate is reported as 54% and the Particle density worked out at 0.74 g/mL.
In the same order, the values of `COc1ccc2[n-]c([S@@+]([O-])Cc3ncc(C)c(OC)c3C)nc2c1.COc1ccc2[n-]c([S@@+]([O-])Cc3ncc(C)c(OC)c3C)nc2c1.O.O.O.[Mg+2]` [Sample 3, esomeprazole magnesium trihydrate] are 88% and 1.21 g/mL.
`COc1ccc2[n-]c([S@@+]([O-])Cc3ncc(C)c(OC)c3C)nc2c1.COc1ccc2[n-]c([S@@+]([O-])Cc3ncc(C)c(OC)c3C)nc2c1.O.O.O.[Mg+2]` [Example 7, esomeprazole magnesium trihydrate]: the “sphericity of the spherulite” value in data set [2] (setting [4]) is 0.97±0.01. Besides, in data set [3] (setting [5]), the “sharpness index of the crystal thus obtained” value (“sharpness index” for short) is on record as 1.40. For the same molecule, in data set [3] (setting [6]), the “d50 of the crystal thus obtained” value was 189 μm.
Consider `O=C(O)CCCN1CCC(O[C@@H](c2ccc(Cl)cc2)c2ccccn2)CC1.O=S(=O)(O)c1ccccc1` [Example 30, bepotastine besilate], for which, in data set [2] (setting [7]), the “sphericity of the spherulite” value is 0.98±0.01. Also, the “sharpness index” value in data set [3] (calculated from d10, d50, d90) was 2.15. Moreover, the “d50 of the crystal thus obtained” value in data set [3] (setting [8]) is on record as 105 μm.
For the molecule `Nc1nc(CC(=O)Nc2ccc(CCNC[C@H](O)c3ccccc3)cc2)cs1` [Example 27, mirabegron], the “sphericity of the spherulite” value in data set [2] (setting [7]) is 0.98±0.01. The “sharpness index” value in data set [3] (calculated from d10, d50, d90) is reported as 1.66. For the same molecule, in data set [3] (setting [8]), the “d50 of the crystal thus obtained” value was 148 μm.
As to `COc1ccc2[n-]c([S@@+]([O-])Cc3ncc(C)c(OC)c3C)nc2c1.COc1ccc2[n-]c([S@@+]([O-])Cc3ncc(C)c(OC)c3C)nc2c1.O.O.O.[Mg+2]` [Example 10(2), esomeprazole magnesium trihydrate], in data set [2] (setting [4]), the “sphericity of the spherulite” value was 0.80±0.05. Moreover, the “sphericity of the non-spherulite” value in data set [2] (non-spherulite crystals, trihydrate) is listed as 0.50±0.06. Besides, in data set [3] (setting [5]), the “sharpness index” value was 1.48. The “d50 of the crystal thus obtained” value in data set [3] (setting [6]) is listed as 9.6 μm. The d50 in data set [3] (samples of filtration test (Table 7), trihydrate) is 9.6 μm.
On to `CC[C@H]1OC(=O)[C@H](C)[C@@H](O[C@H]2C[C@@](C)(OC)[C@@H](O)[C@H](C)O2)[C@H](C)[C@@H](O[C@@H]2O[C@H](C)C[C@H](N(C)C)[C@H]2O)[C@](C)(OC)C[C@@H](C)C(=O)[C@H](C)[C@@H](O)[C@]1(C)O` [Example 13, clarithromycin], for which, in data set [2] (setting [7]), the “sphericity of the spherulite” value came out at 0.87±0.08. Besides, the “sharpness index” value in data set [3] (calculated from d10, d50, d90) was 4.6. Further, in data set [3] (setting [8]), the “d50 of the crystal thus obtained” value is given as 16 μm.
On to `Cn1c(=O)c2[nH]cnc2n(C)c1=O.O.O.O.O.[Mg]` [Example 26, theophylline magnesium salt tetrahydrate], for which the “sphericity of the spherulite” value in data set [2] (setting [7]) was 0.95±0.02. Also, the “sharpness index” value in data set [3] (calculated from d10, d50, d90) is listed as 3.06. Further, the “d50 of the crystal thus obtained” value in data set [3] (setting [8]) was 43.0 μm.
`N[C@@H](CCC(=O)N[C@@H](CS)C(=O)NCC(=O)O)C(=O)O` [Example 23, glutathione]: the “sphericity of the spherulite” value in data set [2] (setting [7]) is listed as 0.85±0.07. Moreover, in data set [3] (calculated from d10, d50, d90), the “sharpness index” value is on record as 2.27. In addition, the “d50 of the crystal thus obtained” value in data set [3] (setting [8]) is 48.4 μm.
As for `COC(=O)[C@H](c1ccccc1Cl)N1CCc2sccc2C1` [Example 16, clopidogrel sulfate], the “sphericity of the spherulite” value in data set [2] (setting [7]) is recorded as 0.96±0.02. Besides, in data set [3] (calculated from d10, d50, d90), the “sharpness index” value is reported as 1.7. Moreover, in data set [3] (setting [8]), the “d50 of the crystal thus obtained” value was 133 μm.
Regarding `CC[C@H]1OC(=O)[C@H](C)[C@@H](O[C@H]2C[C@@](C)(OC)[C@@H](O)[C@H](C)O2)[C@H](C)[C@@H](O[C@@H]2O[C@H](C)C[C@H](N(C)C)[C@H]2O)[C@](C)(O)C[C@@H](C)CN(C)[C@H](C)[C@@H](O)[C@]1(C)O` [Example 12, azithromycin monohydrate], the “sphericity of the spherulite” value in data set [2] (setting [7]) is recorded as 0.89±0.02. Also, in data set [3] (calculated from d10, d50, d90), the “sharpness index” value is given as 1.5. In data set [3] (setting [8]), the “d50 of the crystal thus obtained” value was 75 μm.
Take `O.O.O.O.O.O.O.O.O=C([O-])[O-].O=C([O-])[O-].O=C([O-])[O-].[La+3].[La+3]` [Example 17, lanthanum carbonate octahydrate]: the “sphericity of the spherulite” value in data set [2] was found to be 0.69±0.08. Besides, in data set [3], the “d50 of the crystal thus obtained” value is recorded as 105 μm and the “sharpness index” value is listed as 1.4.
In data set [1], `COc1ccc2[n-]c([S@@+]([O-])Cc3ncc(C)c(OC)c3C)nc2c1.COc1ccc2[n-]c([S@@+]([O-])Cc3ncc(C)c(OC)c3C)nc2c1.O.O.O.[Mg+2]` [Sample 2, esomeprazole magnesium trihydrate] displayed a Particle packing rate of 64% and a Particle density of 0.87 g/mL.
